A short description of data set [1]: Plasma pharmacokinetics after a single i.v. or s.c. dose of EC0565. The following applies: rats. The procedure:
The bioavailability of EC0565 after subcutaneous injection was measured. Female Lewis rats with rounded tip jugular vein catheters (Harlan) were fed regular rodent diet. The treated animals were given a single intravenous or subcutaneous dose of EC0565 at 2 μmol/kg. […] For subcutaneous administration (FIG. 52B), whole blood samples (300 μl) were collected from the animals at 1 min, 10 min, 30 min, 1 h, 2 h, 3 h, 4 h, 8 h, and 12 h post injection. The blood samples were placed into anti-coagulant tubes containing 1.7 mg/mL of K3-EDTA and 0.35 mg/mL of N-maleoyl-beta-alanine (0.35 mg/mL). Plasma samples were obtained by centrifugation for 3 min at ˜2,000 g and stored at −80° C. The amount of EC0565 and its released base drug (everolimus) were determined by HPLC using the EC0565 injection solution as the standard.

The test system of data set [2] is Proliferating Cell Nuclear Antigen (PCNA) in RAW264.7 cells. The data set is described as follows: Western blot for proliferating cell nuclear antigen. The format is cell-based, murine. The following applies: 1-1000 nM; EC0565 2 h treatment and 48 h chase, everolimus 48 h. On the technique in general: Immunoblotting shows a protein as a band on a membrane.
In data set [3] the test system is rats with adjuvant-induced arthritis (AIA). The data set is described as follows: Adjuvant-induced arthritis (AIA) model. The procedure:
Female Lewis rats were fed a folate-deficient diet (Harlan Teklad, Indianapolis, Ind.) for 9-10 days prior to arthritis induction. The adjuvant-induced arthritis (AIA) was induced by intradermal inoculation (at the base of tail) of 0.5 mg of heat-killed Mycobacteria butyricum (BD Diagnostic Systems, Sparks, Md.) in 100 μL light mineral oil (Sigma). Ten days after arthritis induction, paw edema in rats was assessed using a modified arthritis scoring system: 0=no arthritis; 1=swelling in one type of joint; 2=swelling in two types of joint; 3=swelling in three types of joint; 4=swelling of the entire paw. A total score for each rat is calculated by summarizing the scores for each of the four paws, giving a maximum score of 16 for each rat. On Day 10 post arthritis induction, rats with a total arthritis score of ≥2 were removed from the study and the remaining rats were distributed evenly across the control and treatment groups (n=5 for all groups except that n=2-3 for healthy controls). All treatments started on Day 10 unless mentioned otherwise. […]
Rats with adjuvant arthritis were treated subcutaneously with EC0932 (250 nmol/kg) in the absence or presence of 500-fold excess of EC0923 (125 μmol/kg) on days 10, 13, 17, and 20 post arthritis induction. The animals in the healthy and arthritis control groups were left untreated. The arthritis scores and animal body weights were recorded three times a week (see FIG. 19A, B). At the completion of study (day 24), the rats were euthanized by CO2 asphyxiation and processed for paw and spleen weights (see FIG. 20A, B).
The rat adjuvant induced arthritis (AIA) model resembles the characteristics of RA in humans and has been widely used to study the impact of novel anti-inflammatory agents.

In the next data set the target is T1, DHFR (Mus musculus, UniProt P00375).
T1 construct: endogenous in cells; host or cells: RAW264.7 cells
T1 sequence (P00375 1-187): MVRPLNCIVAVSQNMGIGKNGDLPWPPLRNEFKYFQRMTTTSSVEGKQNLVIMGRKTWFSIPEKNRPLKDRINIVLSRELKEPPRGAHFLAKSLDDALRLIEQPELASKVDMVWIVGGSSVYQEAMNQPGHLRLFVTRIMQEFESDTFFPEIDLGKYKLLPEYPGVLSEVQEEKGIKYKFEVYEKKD
The data set is described as follows: DHFR activity in lysate of treated RAW264.7 cells. The format is cell-based, murine. The following applies: excess folic acid alone, 10 μM. On the procedure:
RAW264.7 cells were treated with vehicle (medium), EC0746 (100 nM) without or with 100-fold excess free folate, aminopterin (AMT, 100 nM), methotrexate (MTX, 100 nM), or excess free folate alone (10 μM). After 1 h incubation, the drug-containing media were replaced with fresh medium and the cells were allowed to incubate further for 24 h. At the end of incubation, the cells were lysed and the DHFR activity in cell lysates was measured using a commercial DHFR assay kit (Sigma-Aldrich, Saint Louis, Mo.).

[4] abbreviates: oral everolimus 500 nmol/kg tiw.

The values below come from patent US20200155555A1, “VITAMIN RECEPTOR DRUG DELIVERY CONJUGATES FOR TREATING INFLAMMATION” (Endocyte, Inc., priority 2007, published 2020).

In the case of `CO[C@H]1C[C@@H]2CC[C@@H](C)[C@@](O)(O2)C(=O)C(=O)N2CCCC[C@H]2C(=O)O[C@H]([C@H](C)C[C@@H]2CC[C@@H](OCCOC(=O)OCCSSC[C@H](NC(=O)[C@H](CCC(=O)NC[C@H](O)[C@@H](O)[C@H](O)[C@H](O)CO)NC(=O)[C@H](CCC(=O)O)NC(=O)[C@H](CCC(=O)NC[C@H](O)[C@@H](O)[C@H](O)[C@H](O)CO)NC(=O)[C@H](CCC(=O)O)NC(=O)[C@H](CCC(=O)NC[C@H](O)[C@@H](O)[C@H](O)[C@H](O)CO)NC(=O)CC[C@H](NC(=O)c3ccc(NCc4cnc5nc(N)[nH]c(=O)c5n4)cc3)C(=O)O)C(=O)O)[C@H](OC)C2)CC(=O)[C@H](C)/C=C(\C)[C@@H](O)[C@@H](OC)C(=O)[C@H](C)C[C@H](C)/C=C/C=C/C=C/1C` [EC0565, Everolimus-EC0488 Conjugate], the “free drug (everolimus) exposure/release in plasma, based on AUC” value in data set [1] (single intravenous dose of EC0565, 2 μmol/kg) is “approximately 18%”; in data set [1] (single subcutaneous dose of EC0565, 2 μmol/kg) it was roughly 17%.

Regarding `CO[C@H]1C[C@@H]2CC[C@@H](C)[C@@](O)(O2)C(=O)C(=O)N2CCCC[C@H]2C(=O)O[C@H]([C@H](C)C[C@@H]2CC[C@@H](OCCO)[C@H](OC)C2)CC(=O)[C@H](C)/C=C(\C)[C@@H](O)[C@@H](OC)C(=O)[C@H](C)C[C@H](C)/C=C/C=C/C=C/1C` [everolimus], the “effect on PCNA in synchronized RAW264.7 cells” value in data set [2] was “inhibited PCNA activities”. The “spleen weight compared to arthritic controls” value in data set [3] (500 nmol/kg 3 times a week, EC0565 sc, everolimus oral) is listed as “significantly decreased spleen weight compared to arthritic controls”. Also, in data set [3] (setting [4]), the “decrease in dorsal to ventral paw thickness” value stood at 44%, the “decrease in summed histological score” value came to 52% and the “reductions in all scored histology parameters vs untreated controls” value was 44-61%.

With `Nc1nc2ncc(CNc3ccc(C(=O)N[C@@H](CCC(=O)O)C(=O)O)cc3)nc2c(=O)[nH]1` [folic acid], the “effect on DHFR activity in RAW264.7 cells” value at DHFR is “did not have any impact”.
